Data on seven compounds can be found in US6951731B2, “Method for evaluating inhibition of aspartic proteases” (priority 2001, dated 2005).

Like-named read-outs stand apart in the source and are kept apart here. Where a SMILES comes first, the peptide text is derived from it. [ ]: non-standard residue; d: D form. The star is where a group is joined. Sta = CC(C)C[C@H](N)[C@@H](O)CC(=O)O; Isovaleryl = CC(C)CC(=O)*

For experiment [1], the target named is T1, pepsin (Sus scrofa, UniProt P00791).
T1 construct: formed from pepsinogen A by limited proteolysis
The note with it: cited from earlier work; for D2Okcat (solvent isotope effect): pepsin, synthetic peptide substrate.

In experiment [2] the target is T2, HIV-1 protease (Human immunodeficiency virus type 1 group M subtype B, UniProt P04585). The conditions noted are these: cited from earlier work.
Experiment [3] concerns the target T1, pepsin. The note with it: cited from earlier work.
In experiment [4] the target is T2, HIV-1 protease. The conditions noted are these: complex between HIV-1 protease and pepstatin; cited from earlier work.
Experiment [5] deals with T1, pepsin. Description: Kinetics and solvent isotope effects of pepsin acting on synthetic substrates. The note with it: for kcat (fitted pH-independent kinetic constant): re-analysis of Hunkapillar & Richards data. It counts as biochemical, porcine. The procedure:
FIG. 2: Kinetics of pepsin acting on N-trifluroacetyl-L-phenylalanine as a function of pH (A) and pD (B). The fitted pH-independent kinetic constants are kcat=0.038±0.006 min^−1 in H2O and kcat=[…] in D2O. The dotted line indicates the range of carboxyl pKs consistent with the fitted line in D2O.
The response of low-barrier hydrogen bonds to D2O, as described herein, finally solves this 92 year-old mystery and simultaneously provides a means to evaluate the efficacy of potential aspartic protease inhibitors. During hydrolysis of N-trifluroacetyl-L-phenylalanine, Hunkapillar & Richards^10 observed bell-shaped pH profiles which were shifted to the right, but the upper pK profiles shifted to the left, thereby bringing them closer together. Normally, D2O shifts all pKs to the right about half a unit because of the fractionation factor of H3O^+.^11
The fit to the BELL rate equation of data obtained in H2O converged with pKs of 2.9±0.1 and 4.5±0.1, while those in D2O converged to the default separation of only 0.6 units, the minimum that is statistically possible. The fitted curve in FIG. 2B is the same for identical pKs of 3.84±0.08 or separated pKs of 3.5 and 4.1—or anything in between. Unknown in 1972, low-barrier hydrogen bonds are now understood to cause opposite shifts in the pKs of the conjugate bases participating in the bond. Both protonation and deprotonation of the low-barrier hydrogen bond complex are made more difficult, which shifts apparent pKs outwards in H2O but less so in D2O.^7
By comparing the maximal values of their fitted curves, Hunkapillar & Richards estimated that ^D2Okcat≈3. However, the appropriate comparison note between the absolute maxima, but between the pH-independent maxima,^11 represented by the horizontal bars in FIGS. 2A and 2B. This ratio yields ^D2Okcat=1.8±0.4 for pKs separated by 0.6 units, and lower values if the fractionation factor is greater than 0.3. […]

Where [6] appears, read: product inhibition, substrate Ac-Ser-Glu-Asp-Tyr*Phe-Leu-Asp-Gly-NH2 (SEQ. ID. NO: 2), read-out: Kii.
Setting [7] is: product inhibition, substrate Ac-Ser-Glu-Asp-Tyr*Phe-Leu-Asp-Gly-NH2 (SEQ. ID. NO: 2), read-out: Kis.
Where [8] appears, read: substrate Ac-Ser-Glu-Asp-Tyr*Phe-Leu-Asp-Gly-NH2 (SEQ. ID. NO: 2), KH/KD.
Setting [9] is: pH 4.5, substrate Ac-Ser-Glu-Asp-Tyr*Phe-Val-Val-NH2 (SEQ. ID. NO: 6).

T1 sequence (P00791 60-385): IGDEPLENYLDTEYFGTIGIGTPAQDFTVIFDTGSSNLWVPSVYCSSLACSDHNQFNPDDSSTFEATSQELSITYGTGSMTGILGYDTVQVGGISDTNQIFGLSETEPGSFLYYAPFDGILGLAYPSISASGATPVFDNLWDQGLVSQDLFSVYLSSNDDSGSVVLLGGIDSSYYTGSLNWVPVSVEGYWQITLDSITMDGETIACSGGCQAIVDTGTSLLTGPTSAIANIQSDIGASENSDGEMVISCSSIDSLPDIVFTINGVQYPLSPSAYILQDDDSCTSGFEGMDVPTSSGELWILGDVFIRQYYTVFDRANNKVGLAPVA

For the compound Lys-Lys-Ala-Lys-Phe-Nph-Arg-Leu, the “D2Okcat (solvent isotope effect)” value at pepsin [1] was 2.02±0.15.

As to Leu-Ser-Nph-Nle-Ala-Leu-OMe, on pepsin [1], the “D2Okcat (solvent isotope effect)” value was 1.51±0.02.

Consider “Ac-Ser-Glu-Asp-Tyr (SEDY; printed: Ser-Glu-Asp-Tyr)”, for which the Ki with HIV-1 protease [2] (setting [6]) is 12 mM; with HIV-1 protease [2] (setting [7]), 3.8 mM. Also, in the experiment with HIV-1 protease [2] (setting [8]), the “D2OKii (solvent isotope effect on Kii)” value was 3.8 ± 1.3. Further, in the experiment with HIV-1 protease [2] (setting [8]), the “D2OKis (solvent isotope effect on Kis)” value is reported as 4.2 ± 1.6.

Consider `CC(C)CC(=O)N[C@H](C(=O)N[C@H](C(=O)N[C@@H](CC(C)C)[C@@H](O)CC(=O)N[C@@H](C)C(=O)N[C@@H](CC(C)C)[C@@H](O)CC(=O)O)C(C)C)C(C)C` [pepstatin] (Isovaleryl-VV[Sta]A[Sta]-OH), for which the “D2Ok on slow onset of inhibition” value at pepsin [3] (pre-incubation experiments with free enzyme) is given as 0.69±0.09; on pepsin [3] (when catalysis is in progress), 1.25±0.09. The “Low-barrier hydrogen bond signal in proton NMR of the inhibited complex” value at HIV-1 protease [4] was “negative results”.

Regarding “Phe-Leu-Asp-Gly-NH2 (FLDG; printed: Phe-Leu-Asp-Gly-)”, in the experiment with HIV-1 protease [2] (setting [6]), the Ki is 4 mM. Moreover, the Ki with HIV-1 protease [2] (setting [7]) was 12 mM. Besides, in the experiment with HIV-1 protease [2] (setting [8]), the “D2OKii (solvent isotope effect on Kii)” value is 3.0 ± 0.9 and the “D2OKis (solvent isotope effect on Kis)” value is 1.1 ± 0.4.

As for RASEDY [Ac-Arg-Ala-Ser-Glu-Asp-Tyr], the Ki on HIV-1 protease [2] (pH 3.5, substrate Ac-Ser-Glu-Asp-Tyr*Phe-Val-Val-NH2 (SEQ. ID. NO: 6), pattern uncompetitive, read-out: Kii) is 0.23 mM; on HIV-1 protease [2] (pH 6, substrate printed Ac-Ser-Glu-Asp-Tyr*Phe-Leu-Asp-Gly-NH2 (SEQ. ID. NO: 4), read-out: Kii) it was 8 mM; at HIV-1 protease [2] (pH 6, substrate printed Ac-Ser-Glu-Asp-Tyr*Phe-Leu-Asp-Gly-NH2 (SEQ. ID. NO: 4), read-out: Kis), 7 mM. In addition, the “D2OKii (solvent isotope effect on Kii)” value is 1.0 ± 0.8 at HIV-1 protease [2] (setting [9]) and 3.8 ± 1.3 on HIV-1 protease [2] (pH 6, substrate SEQ. ID. NO: 4). The “D2OKis (solvent isotope effect on Kis)” value at HIV-1 protease [2] (setting [9]) is recorded as 1.2 ± 0.4; at HIV-1 protease [2] (pH 6, substrate SEQ. ID. NO: 4), 4.2 ± 1.6.

Regarding `O=C(O)[C@H](Cc1ccccc1)NC(=O)C(F)(F)F` [N-trifluroacetyl-L-phenylalanine], the “kcat (fitted pH-independent kinetic constant)” value was 0.022±2 min^−1 on pepsin [5] (in D2O) and 0.038±0.006 min^−1 on pepsin [5] (in H2O). Besides, the D2Okcat on pepsin [5] (ratio of pH-independent maxima, pKs separated by 0.6 units) is recorded as 1.8±0.4; on pepsin [1] (estimated by Hunkapillar & Richards from maximal values of fitted curves), “≈ 3”.
